Data: US12667100B2, “Composition comprising benzylamine acaricide and use thereof” (SHANDONG KANGQIAO BIO-TECHNOLOGY CO., LTD, priority 2021, dated 2026)
Where “and” joins values, the source holds several entries; their conditions need not be identical. Identical values can stand only once. Like-named read-outs stand apart in the source and are kept apart here.

Tested on: Tetranychus cinnabarinus Boi, adult mite
Experiment: whole plant or invertebrate
Type: in vivo
Description: Test subject: Tetranychus cinnabarinus Boi, adult mite, indoor rearing sensitive strain.
Test condition: 25° C. constant temperature incubator, 60% relative humidity, light L:D=14:10
Test solution formulation: according to the test needs, accurately weigh the test sample more than 50 mg by using an electronic analytical balance, mixed with acetone to the required concentration, according to calculation, the sample of acetone solution added to a volumetric flask, diluted by aqueous solution with 0.1 wt % Tween 80 to obtain the required concentration of the solution.
Test method: One true leaf was removed after cutting the seedlings of beans, and one true leaf was added to the hydroponic glass jar after leaving the leaf to access about 50-150 adult Tetranychus cinnabarinus Boi of the same size, and the mite base was counted the next day. The Airbrush method was used to treat the test material with medicinal spray, 1.5 mL of medicinal spray was sprayed for each treatment, and a blank control was set for three treatments.
After spraying and drying naturally, the treated test material was placed in a constant temperature observation room. 72 hours later, the number of live mites was investigated and the mortality rate was calculated. The Bliss method was used for evaluation, and the theoretical mortality rate could be calculated by the following formula: P=Pm+Pn(1−Pm)
Pm is the mortality rate (%) of the target at a concentration of m for the first active component (active component a); Pn is the mortality rate (%) of the target at a concentration of n for the second active component (active component b).

[1] = Tetranychus cinnabarinus, 72 h, read-out: 72 h mortality rate
[2] = Tetranychus cinnabarinus, 72 h, single agent 0.01 mg/L, adult mites, 72 h after spraying, read-out: 72 h mortality rate
[3] = Tetranychus cinnabarinus, 72 h, single agent 0.04 mg/L, adult mites, 72 h after spraying, read-out: 72 h mortality rate
[4] = Tetranychus cinnabarinus, 72 h, single agent 0.2 mg/L, adult mites, 72 h after spraying, read-out: 72 h mortality rate
[5] = Tetranychus cinnabarinus, 72 h, single agent 0.4 mg/L, adult mites, 72 h after spraying, read-out: 72 h mortality rate
[6] = Tetranychus cinnabarinus, 72 h, single agent 0.8 mg/L, adult mites, 72 h after spraying, read-out: 72 h mortality rate
[7] = single agent 0.2 mg/L, adult mites, 72 h after spraying
[8] = single agent 0.4 mg/L, adult mites, 72 h after spraying
[9] = single agent 0.8 mg/L, adult mites, 72 h after spraying
[10] = single agent 0.01 mg/L, adult mites, 72 h after spraying
[11] = single agent 0.04 mg/L, adult mites, 72 h after spraying
[12] = single agent 1 mg/L, adult mites, 72 h after spraying
[13] = single agent 5 mg/L, adult mites, 72 h after spraying

**Q.** `Clc1ccccc1-c1nnc(-c2ccccc2Cl)nn1` [clofentezine] was tested. Which mortality at 0.04 µg/mL [1] did it give?
**A.** 0%

**Q.** What about the mortality at 0.2 µg/mL [1] of the same compound?
**A.** 0%

**Q.** What about the mortality at 1 µg/mL [1] of the same compound?
**A.** 9.1%

**Q.** What about the mortality at 8 µg/mL [1] of the same compound?
**A.** 18.2%

**Q.** What about the mortality at 40 µg/mL [1] of the same compound?
**A.** 41.3%

**Q.** Which results are given for `COC(=O)c1ccccc1CNc1cc(SCC(F)(F)F)c(Cl)cc1F` [Compound A9]?
**A.** mortality at 0.01 µg/mL [2]: 0%; mortality at 0.04 µg/mL [3]: 0%; mortality at 0.2 µg/mL [4]: 19.8%; mortality at 0.4 µg/mL [5]: 42.2%; mortality at 0.8 µg/mL [6]: 62.3%; 72 h mortality rate [7]: 18.5% and 27.5% and 22.1% and 22.4%; 72 h mortality rate [8]: 41.9% and 36.0% and 40.8% and 34.5%; 72 h mortality rate [9]: 64.1% and 67.1% and 64.6% and 65.8%

**Q.** `C#CCOS(=O)OC1CCCCC1Oc1ccc(C(C)(C)C)cc1` (stereo not drawn) [propargite] was tested. Which mortality at 0.1 µg/mL [1] did it give?
**A.** 0%

**Q.** What about the mortality at 0.4 µg/mL [1] of the same compound?
**A.** 0%

**Q.** And the mortality at 4 µg/mL [1]?
**A.** 3.9%

**Q.** And the mortality at 25 µg/mL [1]?
**A.** 34.1%

**Q.** For `C[C@@H]1[C@@H](c2ccc(Cl)cc2)SC(=O)N1C(=O)NC1CCCCC1` [hexythiazox], which mortality at 0.04 µg/mL [1] is on record?
**A.** 0%

**Q.** What about the mortality at 0.2 µg/mL [1] of the same compound?
**A.** 12.8%

**Q.** And the mortality at 1 µg/mL [1]?
**A.** 21.3%

**Q.** And the mortality at 8 µg/mL [1]?
**A.** 36.3%

**Q.** What about the mortality at 40 µg/mL [1] of the same compound?
**A.** 69.5%

**Q.** Which results are given for `CCOc1cc(C(C)(C)C)ccc1C1COC(c2c(F)cccc2F)=N1` (stereo not drawn) [etoxazole]?
**A.** mortality at 0.01 µg/mL [1]: 0%; mortality at 0.04 µg/mL [1]: 0%; mortality at 0.2 µg/mL [1]: 9.3%; mortality at 0.4 µg/mL [1]: 21.4%; mortality at 1 µg/mL [1]: 26.6%; mortality at 5 µg/mL [1]: 43.6%

**Q.** For `Cc1cc(C)c(C2=C(OC(=O)CC(C)(C)C)C3(CCCC3)OC2=O)c(C)c1` [spiromesifen], which “72 h mortality rate” value [10] is on record?
**A.** 0%

**Q.** What about the “72 h mortality rate” value [11] of the same compound?
**A.** 0%

**Q.** What about the “72 h mortality rate” value [7] of the same compound?
**A.** 0%

**Q.** What about the “72 h mortality rate” value [8] of the same compound?
**A.** 14.1%

**Q.** What about the “72 h mortality rate” value [12] of the same compound?
**A.** 30.4%

**Q.** And the “72 h mortality rate” value [13]?
**A.** 64.9%

**Q.** How did the mortality at 0.01 µg/mL [2] turn out when `COC(=O)c1ccccc1CNc1cc(SCC(F)(F)F)c(C)cc1F` [Compound A1] was run?
**A.** 0%

**Q.** And the mortality at 0.04 µg/mL [3]?
**A.** 0%

**Q.** What about the mortality at 0.2 µg/mL [4] of the same compound?
**A.** 27.9%

**Q.** And the mortality at 0.4 µg/mL [5]?
**A.** 40.1%

**Q.** And the mortality at 0.8 µg/mL [6]?
**A.** 74.6%

**Q.** And the “72 h mortality rate” value [7]?
**A.** 22.2% and 28.1% and 26.8% and 19.8%

**Q.** And the “72 h mortality rate” value [8]?
**A.** 40.4% and 43.3% and 41.7% and 42.3%

**Q.** What about the “72 h mortality rate” value [9] of the same compound?
**A.** 74.3% and 72.6% and 72.7% and 74.1%

**Q.** Which “72 h mortality rate” value [10] does the source give for `CCC(C)(C)C(=O)OC1=C(c2ccc(Cl)cc2Cl)C(=O)OC12CCCCC2` [spirodiclofen] here?
**A.** 0%

**Q.** What about the “72 h mortality rate” value [11] of the same compound?
**A.** 0%

**Q.** And the “72 h mortality rate” value [7]?
**A.** 0%

**Q.** What about the “72 h mortality rate” value [8] of the same compound?
**A.** 9.4%

**Q.** What about the “72 h mortality rate” value [12] of the same compound?
**A.** 24.2%

**Q.** What about the “72 h mortality rate” value [13] of the same compound?
**A.** 56.9%

**Q.** Which mortality at 0.0005 µg/mL [1] does the source give for `CC[C@H](C)[C@H]1O[C@]2(C=C[C@@H]1C)C[C@@H]1C[C@@H](C/C=C(\C)[C@@H](O[C@H]3C[C@H](OC)[C@@H](O[C@H]4C[C@H](OC)[C@@H](O)[C@H](C)O4)[C@H](C)O3)[C@@H](C)/C=C/C=C3\CO[C@@H]4[C@H](O)C(C)=C[C@@H](C(=O)O1)[C@]34O)O2` [avermectin] here?
**A.** 0%

**Q.** And the mortality at 0.0025 µg/mL [1]?
**A.** 14.8%

**Q.** What about the mortality at 0.01 µg/mL [1] of the same compound?
**A.** 37.3%

**Q.** What about the mortality at 0.02 µg/mL [1] of the same compound?
**A.** 70%

**Q.** Which results are given for `CCn1nc(C)cc1/C(OC(=O)C(C)(C)C)=C(/C#N)c1ccc(C(C)(C)C)cc1` [cyetpyrafen]?
**A.** 72 h mortality rate [10]: 0%; 72 h mortality rate (single agent 0.05 mg/L, adult mites, 72 h after spraying): 2.8%; 72 h mortality rate (single agent 0.1 mg/L, adult mites, 72 h after spraying): 17.0%; 72 h mortality rate [7]: 37.9%; 72 h mortality rate (single agent 0.5 mg/L, adult mites, 72 h after spraying): 75.5%
